Assay results published in paper PMC12292862 (Biomedicines, 2025).
“Also recorded” adds a separate entry of the source. Marks after values point to notes of the source that are not given here.

Assays:
COX-2 = assay: In vitro colorimetric COX (ovine) inhibitor-screening assay, COX-2; assay type: biochemical; details: ovine COX-2, tested at 50, 100 and 150 µg/mL
Description: The test compounds’ ability to suppress COX-1 and COX-2 was evaluated using a colorimetric COX (ovine) inhibitor-screening method (Cayman Chemical, Item Number 760111). In brief, 150 μL of assay buffer, 10 μL of heme, 10 μL of enzyme (COX-1 or COX-2), and 10 μL of compound (1 mg/mL) make up the reaction mixture. In a final volume of […], the test compounds were evaluated at doses of 50, 100, and 150 μg/mL. The cyclooxygenase peroxidase component is used in the experiment. By monitoring the appearance of oxidized N, N, […] (TMPD) at 590 nm, the peroxidase activity is measured […]. […] The following formula was used to determine the % COX inhibition: The COX inhibition activity percentage is equal to (1 − T/C ×100), where T is the inhibitor well’s absorbance and C is the starting activity’s absorbance at 100% without the inhibitor well.

[1] = tested on: carrageenan-induced rat paw edema; assay: Carrageenan-induced paw edema; assay type: in vivo; details: compounds 200 mg/kg i.p., indomethacin 10 mg/kg, 4 h after carrageenan
Description: Rats’ carrageenan-induced paw edema model was used to assess the novel synthesized drugs’ anti-inflammatory properties. A total of 180–190 g of male Wistar rats were used for the experiments. In the animal house at Sohag University in Sohag, Egypt, every animal was kept in careful laboratory conditions. After being weighed and divided into six groups at random, the animals are housed for a week to reduce stress and allow them to get used to the laboratory environment. The chemicals that were synthesized were administered intraperitoneally (i.p.) to rats at a dosage of 200 mg/kg. The control group received only vehicles. […] The rats were given a 0.2 mL sub-plantar injection of a 1% (w/v) suspension of carrageenan (made in PBS) in their right hind paw thirty minutes following the injection of synthesized compounds [33]. […] The % inhibition of paw edema was calculated by the following formula [34]:%Inhibition = ((Mean edema of control group − Mean edema of test compound)/(Mean edema of control group)) × 100.

CRP = assay: Serum CRP (ELISA) in carrageenan-injected rats; assay type: in vivo, rat; details: compounds 200 mg/kg i.p., indomethacin 10 mg/kg, mean ± SD
Description: (§1) The selective pro-inflammatory cytokines were measured quantitatively using rat-specific Enzyme-Linked Immunosorbent Assay (ELISA) kits from Thermo Scientific™ (Waltham, MA, USA) with CAT. No. ERCRP for CRP; from Elabscience with Cat. No. E-EL-R2856 for TNF-α and with Cat. No. E-EL-R0011 for IL-1α; from CUSABIO, Houston, TX, USA, with Cat. No. CSB-E04640r for IL-6; and from My BioSource Co, USA, with Cat. No. MBS825017 for IL-1β, with Cat. No. MBS753621 for rat cyclooxygenase 1, and with Cat. No. MBS266603 for rat cyclooxygenase 2. Meanwhile, an ovine COX inhibitor-screening in vitro assay (item number 760111) was obtained from Cayman Chemical (Ann Arbor, MI, USA). We purchased malondialdehyde (MDA), glutathione (GSH), and superoxide dismutase (SOD) detection kits from Nanjing Jiancheng Bio-Technology Co. Ltd. (Nanjing, China).
(§2) At the end of the experiments, the rats were subjected to anesthesia with chloroform and then sacrificed. Blood was obtained via heart puncture for biochemical analysis. Following the animals’ sacrifice, the paws were taken out, decalcified, and stored in a 10% formalin solution. To prepare the tissue samples, they were sliced into thicknesses of 5 µm. Hematoxylin and eosin dyes were used to create the histology slides, which were then examined using a photomicroscope (Meiji Techno®, Iruma, Japan) for pathological alterations. The presence of inflammation was documented. Protease/phosphatase inhibitor cocktail in cold phosphate-buffered saline (1:4) (pH 7, 0.01 mol/L) (Cat. No. PPC1010, Sigma-Aldrich) was used to homogenize each rat’s paw piece in a glass homogenizer. After filtering and centrifuging the resultant homogenate for five minutes at 5000× g, oxidative stress biomarkers like GSH, SOD, and MDA were measured. The trials were repeated three times.

IL-1α = assay: Serum IL-1α (ELISA) in carrageenan-injected rats; assay type: in vivo, rat; details: compounds 200 mg/kg i.p., indomethacin 10 mg/kg, mean ± SD
Description: as §1, §2

IL-1β = assay: Serum IL-1β (ELISA) in carrageenan-injected rats; assay type: in vivo, rat; details: compounds 200 mg/kg i.p., indomethacin 10 mg/kg, mean ± SD
Description: as §1, §2

IL-6 = assay: Serum IL-6 (ELISA) in carrageenan-injected rats; assay type: in vivo, rat; details: compounds 200 mg/kg i.p., indomethacin 10 mg/kg, mean ± SD
Description: as §1, §2

TNF-α = assay: Serum TNF-α (ELISA) in carrageenan-injected rats; assay type: in vivo, rat; details: compounds 200 mg/kg i.p., indomethacin 10 mg/kg, mean ± SD
Description: as §1, §2

rat cyclooxygenase 1 = assay: COX-1 level in carrageenan-injected paw (ELISA); assay type: in vivo; details: compounds 200 mg/kg i.p., indomethacin 10 mg/kg, mean ± SD
Description: as §1, §2

rat cyclooxygenase 2 = assay: COX-2 level in carrageenan-injected paw (ELISA); assay type: in vivo; details: compounds 200 mg/kg i.p., indomethacin 10 mg/kg, mean ± SD
Description: as §1, with “Meanwhile, an ovine COX inhibitor-screening in vitro assay (item number 760111) was obtained from Cayman Chemical (Ann Arbor, MI, USA).” left out
as §2

rat paw tissue [2] = assay: Histopathological examination of paw tissue (HE); assay type: in vivo; details: carrageenan-injected paw; compounds 200 mg/kg i.p., indomethacin 10 mg/kg
Description: as §2

[3] = tested on: rat paw tissue dermal collagen; assay: Sirius Red staining of dermal collagen in paw tissue; assay type: in vivo; details: carrageenan-injected paw; compounds 200 mg/kg i.p., indomethacin 10 mg/kg
rat paw tissue [4] = assay: Histomorphometry lesion scores of paw tissue sections; assay type: in vivo; details: vs carrageenan group

Compound: COc1ccc2c(c1)c(CC(=O)O)c(C)n2C(=O)c1ccc(Cl)cc1 [indomethacin, reference compound]
- COX-2 inhibition % (mean activity) (COX-2): 97%
- inhibition of paw edema after 4 h [1]: 57.66%
- CRP (CRP): 6.23 ± 0.22 ^b ng/mL
- IL-1α (IL-1α): 79.28 ± 0.55 ^b pg/mL
- IL-1β (IL-1β): 92.86 ± 0.47 ^b pg/mL
- IL-6 (IL-6): 18.49 ± 0.27 ^b pg/mL
- TNF-α (TNF-α): 11.30 ± 0.30 ^b pg/mL
- COX-1 level (rat cyclooxygenase 1): 6.31 ± 0.08 ng/mL
- COX-2 level (rat cyclooxygenase 2): 5.11 ± 0.13 ng/mL
- histopathological findings of paw tissue (HE) (rat paw tissue [2]): marked edema
- dermal collagen content and distribution (Sirius Red) [3]: marked dispersed collagenous fibers; also recorded: markedly dispersed and less organized
- inflammation scores (rat paw tissue [4]; Figure 11A): significantly reduced inflammation scores
- vascular alteration scores (rat paw tissue [4]; Figure 11C): significantly mitigated vascular alterations
